Experimental data as given in patent US11834470B2, “4-thioribose NAD analogues and methods of synthesizing and using the same” (University of Southern California, priority 2018, dated 2023).

Legend:
Type in all cases: biochemical
human NMNAT = biological target: T1, human NMNAT (Homo sapiens, UniProt Q9HAN9); test: enzymatic conversion by purified NRK1 and NMNAT1 with ATP, HPLC: NMNAT step; details: 6 mM ATP, 5 μM NRK1 and 5 μM NMNAT1, RT; relative to NMN
T1 construct: made in house; host or cells: E. coli BL21 (DE3), pET-28a(+)
Protocol: (§1) FIGS. 4A-4D: HPLC analysis of enzymatic synthesis of S-NAD^+ by the purified NRK1 and NMNAT1 as measured by UV absorbance at 260 nm. 2 mM S—NR was incubated with 6 mM ATP and 5 μM NRK1 and 5 μM NMNAT1 at RT for 0 h (FIG. 4A), 0.5 h (FIG. 4B), 1 h (FIG. 4C), and 4 h (FIG. 4D), followed by HPLC analysis.
(§2) Purified S—NR (0.5 mg in the form of bromide salt) was incubated with 6 mM ATP, 5 uM of purified NRK1 and NMNAT1 at the final concentration of 2 mM at room temperature for overnight in the reaction buffer (50 mM Tris, 100 mM NaCl, 12 mM MgCl2, 1 mM DTT, and pH 7.5). After centrifugation at 4,000 g for 5 minutes, supernatants were analyzed by HPLC and the fraction containing S-NAD^+ (0.68 mg, 70%) were pooled and confirmed by both NMR and mass spectrometry. All analysis and purifications on HPLC were performed with a semipreparative C18 Kinetex column (5 μm, 100 Å, 150×10.0 mm, from Phenomenex Inc, Torrance, CA) using the following method, mobile phase A: 0.1% formic acid (aq); mobile phase B: 0.1% formic acid in methanol; flow rate: 2.0 ml/min; 0-2 min: 0-4% B, 2-4 min: 4-10% B; 4-6 min: 10-20% B; 6-9 min: 20% B; 9-12 min: 20-50% B; and 12-14 min: 50-0% B.
(§3) Human NRK1 and NMNAT1 were then expressed and purified from Escherichia coli (FIG. 1). In vitro biosynthesis of NAD^+ and S-NAD^+ from NR and S—NR, respectively, were carried out using purified NRK1 and NMNAT1. […]

human CD38 [1] = biological target: T2, human CD38 (Homo sapiens, UniProt P28907, N100D/N164A/N209D/N219D); test: continuous fluorescence-based CD38 cyclase activity assay with NGD+ as substrate (cGDPR formation)
T2 construct: His6 (N, cleaved yes); TEV protease cleavage site (N, cleaved yes); made in house; host or cells: Expi293 cells, secreted, transient transfection (pFuse vector)
T2 sequence (P28907 45-300 N100D/N164A/N209D/N219D): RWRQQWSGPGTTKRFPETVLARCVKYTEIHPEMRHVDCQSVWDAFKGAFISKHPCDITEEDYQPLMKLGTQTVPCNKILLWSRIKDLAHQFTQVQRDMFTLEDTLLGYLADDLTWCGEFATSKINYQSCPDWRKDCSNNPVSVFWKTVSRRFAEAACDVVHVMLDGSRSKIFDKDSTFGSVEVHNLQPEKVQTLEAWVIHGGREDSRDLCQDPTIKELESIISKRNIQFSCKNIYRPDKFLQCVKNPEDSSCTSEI
Protocol: Recombinant human CD38 (8 nM) was incubated with 50 μM NGD^+ in the presence of varied concentrations of S-NAD^+. CD38 cyclase activities were monitored on the basis of the formation of fluorescent cGDPR as measured at 410 nm.
NGD^+ (Sigma-Aldrich, MO) was used as a substrate to determine ADP-ribosyl cyclase activity of purified CD38, because cyclic GDP-ribose (cGDPR) product is characterized by distinctive UV absorbance at 295 nm and fluorescence emission at 410 nm (excitation at 300 nm).^5 To characterize kinetic parameters, reactions were initiated by additions of recombinant CD38 (8.3 nM final) into assay wells with various concentrations of NGD^+ in 20 mM MES, pH 6.5, followed by monitoring the reactions through fluorescence at 410 nm (excitation at 300 nm) to determine initial reaction rates. Inhibition activities of S-NAD^+ were determined by carried out enzymatic formation of cyclic GDP-ribose in the presence of S-NAD^+. […] All reactions were carried out in black 96-well plates and the resulting fluorescence was measured using a BioTek Synergy H1 Hybrid Multi-Mode Microplate Reader (BioTek, VT) in the kinetic mode. The Km of NGD^+ for CD38 was calculated by fitting data with Michaelis-Menten function implemented in GraphPad Prism (La Jolla, CA). […]

human CD38 [2] = biological target: T2, human CD38; test: substrate activity with human CD38, overnight incubation, HPLC analysis; details: 1 mM compound, 13.4 nM recombinant human CD38, 50 mM MES pH 6.5, room temperature overnight
Protocol: FIGS. 15A-15D: Activity of NAD^+ and S-NAD^+ for human CD38. HPLC analysis of substrate activities of NAD^+ (FIG. 15A-15B) and S-NAD^+ (FIG. 15C-15D) with human CD38 as measured by UV absorbance at 260 nm. 1 mM NAD^+ or S-NAD^+ was incubated without and with CD38 at RT overnight, followed by HPLC analysis.
1 mM S-NAD^+ and NAD^+ in 50 mM MES, pH 6.5 were incubated with 13.4 nM recombinant human CD38 for overnight at room temperature, followed HPLC analysis of the reaction mixtures. HPLC analysis was performed with a semipreparative C18 Kinetex column (5 μm, 100 Å, 150×10.0 mm, from Phenomenex Inc, Torrance, CA) using following method: mobile phase A: 0.1% formic acid (aq); mobile phase B: 0.1% formic acid in methanol; flow rate: 2.0 ml/min; 0-2 min: 0-4% B, 2-4 min: 4-10% B; 4-6 min: 10-20% B; 6-9 min: 20% B; 9-12 min: 20-50% B; and 12-14 min: 50-0% B.

[3] = biological target: T3, Bovine glutamate dehydrogenase (GDH) (Bos taurus, UniProt P00366); test: substrate activity with redox enzyme GDH (UV 340 nm and HPLC); details: for HPLC analysis of reduction by bovine GDH: 0.5 mM compound, 2 mM L-glutamate, 20 unit/ml GDH, 30 minutes, peaks confirmed by mass spectrometry
T3 construct: purchased Sigma-Aldrich (St. Louis, MO)
Protocol: (§4) Bovine glutamate dehydrogenase (GDH) and Leuconostoc mesenteroides glucose-6-phosphate dehydrogenase (G6PDH) were purchased from Sigma-Aldrich (St. Louis, MO) and used for determining the substrate activities of NAD^+ and S-NAD^+. To examine substrate activity with bovine GDH, 0.1 mM NAD^+ or S-NAD^+ was incubated with 1 mM L-glutamate and 0.1 unit/ml GDH in buffer containing 2 mM DTT, 50 mM Tris, pH 7.5 for 15 minutes at room temperature. To determine substrate activity with G6PDH, 0.5 mM NAD^+ or S-NAD^+ was incubated with 5 mM D-glucose 6-phosphate and 0.01 unit/ml G6PDH in buffer containing 5 mM MgCl2, 50 mM Tris, pH 7.5 for 15 minutes at room temperature. Formation of NADH and S-NADH were monitored by UV absorbance at 340 nm under kinetic mode using a NanoDrop 2000C spectrophotometer (Thermo Scientific, MA).
(§5) To examine the bovine GDH-catalyzed reactions, 0.5 mM NAD^+ or S-NAD^+ was incubated with 2 mM L-glutamate and 20 unit/ml GDH in buffer containing 2 mM DTT, 50 mM Tris, pH 7.5 for 30 minutes at room temperature, followed by HPLC analysis with detection of UV absorbance at 340 nm. To evaluate the L. mesenteroides G6PDH-catalyzed reactions, 0.5 mM NAD^+ or S-NAD^+ was incubated with 5 mM D-glucose 6-phosphate and 10 unit/ml G6PDH in buffer containing 5 mM MgCl2, 50 mM Tris, pH 7.5 for 30 minutes at room temperature, followed by HPLC analysis with detection of UV absorbance at 340 nm. The HPLC method used for analysis of reactions by GDH and G6PDH was the same as described above.

[4] = biological target: T4, Leuconostoc mesenteroides glucose-6-phosphate dehydrogenase (G6PDH) (Leuconostoc mesenteroides, UniProt P11411); test: substrate activity with redox enzyme G6PDH (UV 340 nm and HPLC); details: 0.5 mM compound, 5 mM D-glucose 6-phosphate; for HPLC analysis of reduction by L. mesenteroides G6PDH: 10 unit/ml G6PDH, 30 minutes, peaks confirmed by mass spectrometry
T4 construct: purchased Sigma-Aldrich (St. Louis, MO)
Protocol: as §4, §5

human NRK = test: enzymatic conversion by purified NRK1 and NMNAT1 with ATP, HPLC: NRK step; details: 2 mM S-NR, 6 mM ATP, 5 μM NRK1 and 5 μM NMNAT1, RT; relative to NR
Protocol: as §1, §2, §3

T4 sequence (P11411 whole entry): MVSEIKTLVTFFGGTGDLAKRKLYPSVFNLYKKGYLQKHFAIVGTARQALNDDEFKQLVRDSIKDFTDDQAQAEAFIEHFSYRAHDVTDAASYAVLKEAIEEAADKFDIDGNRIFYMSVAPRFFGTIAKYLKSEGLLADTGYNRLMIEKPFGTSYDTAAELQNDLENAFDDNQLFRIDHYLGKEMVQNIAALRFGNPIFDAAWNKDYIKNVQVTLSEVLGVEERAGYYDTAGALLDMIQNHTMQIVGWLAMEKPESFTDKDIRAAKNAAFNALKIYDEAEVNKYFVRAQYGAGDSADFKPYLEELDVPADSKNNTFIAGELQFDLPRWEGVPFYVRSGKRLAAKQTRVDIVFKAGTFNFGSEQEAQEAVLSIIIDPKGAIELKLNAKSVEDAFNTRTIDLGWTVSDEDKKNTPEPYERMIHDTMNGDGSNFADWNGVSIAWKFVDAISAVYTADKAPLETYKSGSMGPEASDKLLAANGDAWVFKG
T3 sequence (P00366 58-558): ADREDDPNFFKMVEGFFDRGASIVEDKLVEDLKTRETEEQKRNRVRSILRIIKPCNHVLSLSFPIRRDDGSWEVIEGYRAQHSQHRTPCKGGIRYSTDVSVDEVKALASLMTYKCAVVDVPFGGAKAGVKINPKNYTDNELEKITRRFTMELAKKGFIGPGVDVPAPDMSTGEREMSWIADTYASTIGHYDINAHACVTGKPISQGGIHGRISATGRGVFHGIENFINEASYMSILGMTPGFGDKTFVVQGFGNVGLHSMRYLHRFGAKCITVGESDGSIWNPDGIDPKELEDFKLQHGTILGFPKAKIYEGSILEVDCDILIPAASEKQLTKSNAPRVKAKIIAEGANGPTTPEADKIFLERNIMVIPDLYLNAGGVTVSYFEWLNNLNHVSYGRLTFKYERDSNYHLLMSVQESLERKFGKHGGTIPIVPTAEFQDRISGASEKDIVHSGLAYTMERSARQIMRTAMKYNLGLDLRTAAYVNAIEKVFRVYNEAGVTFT
T1 sequence (Q9HAN9 with tags, fused parts or gaps): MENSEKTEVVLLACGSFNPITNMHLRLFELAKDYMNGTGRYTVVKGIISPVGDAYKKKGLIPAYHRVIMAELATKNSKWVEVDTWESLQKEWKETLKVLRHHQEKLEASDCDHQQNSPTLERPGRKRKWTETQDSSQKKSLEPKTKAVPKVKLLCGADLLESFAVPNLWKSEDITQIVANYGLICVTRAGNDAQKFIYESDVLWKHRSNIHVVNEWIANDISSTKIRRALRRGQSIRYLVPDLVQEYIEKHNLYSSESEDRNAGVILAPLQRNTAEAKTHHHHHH

Compound | fate of compound after overnight reaction with CD38 (HPLC) (human CD38 [2]) | HPLC analysis of reduction by bovine GDH [3] | HPLC analysis of reduction by L. mesenteroides G6PDH [4] | also measured
NC(=O)c1ccc[n+](C2SC(COP(=O)([O-])O)C(O)C2O)c1 (stereo not drawn) [S-NMN, 4′-thioribose nicotinamide mononucleotide] | – | – | – | effect of sulfur substitution on substrate activity for human NMNAT (human NMNAT): no effect
NC(=O)c1ccc[n+]([C@@H]2S[C@H](COP(=O)(O)OP(=O)([O-])OC[C@H]3O[C@@H](n4cnc5c(N)ncnc54)[C@H](O)[C@@H]3O)[C@@H](O)[C@H]2O)c1 (stereo in doubt) [S-NAD^+, 4′-thioribose NAD+] | still remained unchanged | enzyme-dependent formation of NADH and S-NADH peaks | enzyme-dependent formation of NADH and S-NADH peaks | slow-onset inhibition of CD38 (human CD38 [1]; direct competition assays with extended incubation or preincubating CD38 with S-NAD+): no slow-onset inhibition was observed; reduction by bovine GDH monitored by UV absorbance at 340 nm ([3]; 0.1 mM compound, 1 mM L-glutamate, 0.1 unit/ml GDH, 15 minutes, room temperature): characteristic increases of UV absorbance at 340 nm; reduction by L. mesenteroides G6PDH monitored by UV absorbance at 340 nm ([4]; 0.01 unit/ml G6PDH, 15 minutes, room temperature): characteristic increases of UV absorbance at 340 nm
NC(=O)c1ccc[n+]([C@@H]2O[C@H](COP(=O)([O-])OP(=O)(O)OC[C@H]3O[C@@H](n4cnc5c(=O)[nH]c(N)nc54)[C@H](O)[C@@H]3O)[C@@H](O)[C@H]2O)c1 [NGD^+, nicotinamide guanine dinucleotide, reference compound] | – | – | – | Km (human CD38 [1]; 8.3 nM recombinant CD38, 20 mM MES pH 6.5, fluorescence at 410 nm): 8.5 ± 0.6 µM
NC(=O)c1ccc[n+]([C@@H]2O[C@H](COP(=O)([O-])OP(=O)(O)OC[C@H]3O[C@@H](n4cnc5c(N)ncnc54)[C@H](O)[C@@H]3O)[C@@H](O)[C@H]2O)c1 [NAD^+, Nicotinamide adenine dinucleotide, reference compound] | completely consumed | enzyme-dependent formation of NADH and S-NADH peaks | enzyme-dependent formation of NADH and S-NADH peaks | –
NC(=O)c1ccc[n+]([C@@H]2S[C@H](CO)[C@@H](O)[C@H]2O)c1.[Br-] [S—NR, 3-carbamoyl-1-((2R,3R,4S,5R)-3,4-dihydroxy-5-(hydroxymethyl)tetrahydrothiophen-2-yl)pyridin-1-ium] | – | – | – | effect of sulfur substitution on substrate activity for human NRK (human NRK): no effect
